For 18 molecules, IC50 results are on record in patent publication US10053431B2, “Tetrahydro-benzodiazepinones” (priority 2013, dated 2018).

Usually IC50 stands for the concentration that inhibits the measured activity by half.

Structures can show the parent of a compound that is named as a salt.

The target in one test is BIR2 domain of XIAP (Homo sapiens (Human), UniProt P98170, C202A/C213G). Nature of the test: TR-FRET assay for BIR2 (inhibition of binding of XIAP BIR2 domain to SMAC-derived Peptide A). The settings on record: 6x His-tagged BIR2 domain (aa 124-240 of XIAP) 10 nM, Peptide A 20 nM, TR-FRET; read-out: IC50 BIR2.
Chain of BIR2 domain of XIAP (P98170 124-240 with tags or gaps C202A/C213G limits assumed): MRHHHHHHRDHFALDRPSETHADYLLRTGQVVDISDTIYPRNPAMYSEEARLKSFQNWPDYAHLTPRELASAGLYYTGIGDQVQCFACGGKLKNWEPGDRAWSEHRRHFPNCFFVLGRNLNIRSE
In the case of `CN[C@@H](C)C(=O)N[C@H]1CN(C(=O)c2ccc(C(=O)O)cc2)c2ccccc2N(Cc2c(OC)ccc3cc(Br)ccc23)C1=O` [Example 29, 4-[(S)-5-(6-Bromo-2-methoxy-naphthalen-1-ylmethyl)-3-((S)-2-methylamino-propionylamino)-4-oxo-2,3,4,5-tetrahydro-benzo[b][1,4]diazepine-1-carbonyl]-benzoic acid hydrochloride], the IC50 worked out at 0.028 µM.
`CN[C@@H](C)C(=O)N[C@H]1CN(C(=O)c2ccccc2[C@H](C)O)c2ccccc2N(Cc2c(C)ccc3ccccc23)C1=O` (stereo in doubt) [Example 153, (25)-N-[(3S)-1-[2-[(1S)-1-hydroxyethyl]benzoyl]-5-[(2-methylnaphthalen-l-yl)methyl]-4-oxo-2,3-dihydro-1,5-benzodiazepin-3-yl]-2-(methylamino)propanamide;(2S)-N-[(3S)-1-[2-[(1R)-1-hydroxyethyl]benzoyl]-5-[(2-methylnaphthalen-1-yl)methyl]-4-oxo-2,3-dihydro-1,5-benzodiazepin-3-yl]-2-(methylamino)propanamide]: the IC50 was found to be 0.0524 µM.
In the case of `CN[C@@H](C)C(=O)N[C@H]1CN(C(=O)CC2CCCCC2)c2ccccc2N(Cc2c(OC)ccc3cc(Br)ccc23)C1=O` [Example 13i], the IC50 came out at 0.078 µM.
Same read-out and setting: then `COc1ccc2cc(Br)ccc2c1CN1C(=O)[C@@H](NC(=O)[C@H](C)N)CN(C(=O)c2ccc(C(C)=O)cc2)c2ccccc21` [Example 39, (S)—N—((S)-5-(4-acetylbenzoyl)-1-((6-bromo-2-methoxynaphthalen-1-yl)methyl)-2-oxo-2,3,4,5-tetrahydro-1H-benzo[b][1,4]diazepin-3-yl)-2-aminopropanamide hydrochloride], with 0.019 µM.
Still for that read-out and setting: then `CN[C@@H](C)C(=O)N[C@H]1CN(C(=O)CCCC(C)=O)c2ccccc2N(Cc2c(OC)ccc3cc(C(=O)OC)ccc23)C1=O` [Example 46, 6-Methoxy-5-[(S)-3 ((S)-2-methylamino-propionylamino)-2-oxo-5-(5-oxo-hexanoyl)-2,3,4,5-tetrahydro-benzo[b][1,4]diazepin-1-ylmethyl]-naphthalene-2-carboxylic acid methyl ester hydrochloride], with 0.062 µM; and `CN[C@@H](C)C(=O)N[C@H]1CN(C(=O)c2ccc(C(O)C(F)(F)F)cc2)c2ccccc2N(Cc2c(OC)ccc3cc(Br)ccc23)C1=O` (mixture of isomers) [Example 32, (S)—N—{(S)-1-(6-Bromo-2-methoxy-naphthalen-1-ylmethyl)-2-oxo-5-[4-(2,2,2-trifluoro-1-hydroxy-ethyl)-benzoyl]-2,3,4,5-tetrahydro-1H-benzo[b][1,4]diazepin-3-yl}-2-methylamino-propionamide hydrochloride, mixture of diastereomers], with 0.025 µM.
Take `CN[C@@H](C)C(=O)N[C@H]1CN(C(=O)c2ccc(C(=O)C(C)(C)C)cc2)c2ccccc2N(Cc2c(OC)ccc3cc(Br)ccc23)C1=O` [Example 13j]: the IC50 was 0.037 µM.
`CN[C@@H](C)C(=O)N[C@H]1CN(C(=O)CCN)c2ccccc2N(Cc2c(OC)ccc3cc(C(=O)O)ccc23)C1=O` [Example 62, 5-(((S)-5-(3-aminopropanoyl)-3-((S)-2-(methylamino)propanamido)-2-oxo-2,3,4,5-tetrahydro-1H-benzo[b][1,4]diazepin-1-yl)methyl)-6-methoxy-2-naphthoic acid hydrochloride]: the IC50 stood at 0.017 µM.
Still for that read-out and setting: then `CN[C@@H](C)C(=O)N[C@H]1CN(C(=O)Cc2ccc(C(C)=O)cc2)c2ccccc2N(Cc2c(OC)ccc3cc(Br)ccc23)C1=O` [Example 13o], with 0.028 µM; and `COc1ccc2cc(Br)ccc2c1CN1C(=O)[C@@H](NC(=O)[C@@H]2CCN2)CN(C(=O)c2ccc(C(C)=O)cc2)c2ccccc21` [Example 36, (S)—N—((S)-5-(4-acetylbenzoyl)-1-((6-bromo-2-methoxynaphthalen-1-yl)methyl)-2-oxo-2,3,4,5-tetrahydro-1H-benzo[b][1,4]diazepin-3-yl)azetidine-2-carboxamide hydrochloride], with 5 µM.
For the molecule `CN[C@@H](C)C(=O)N[C@H]1CN(CCc2ccccc2)c2ccccc2N(Cc2cccc3ccccc23)C1=O` [Example 7, (S)-2-Methylamino-N—((S)-1-naphthalen-1-ylmethyl-2-oxo-5-phenethyl-2,3,4,5-tetrahydro-1H-benzo[b][1,4]diazepin-3-yl)-propionamide trifluoroacetate], the IC50 is 1.55 µM.
As for `CN[C@@H](C)C(=O)N[C@H]1CN(C(=O)CC23CC4CC(CC(C4)C2)C3)c2ccccc2N(Cc2c(OC)ccc3cc(Br)ccc23)C1=O` [Example 13q], the IC50 worked out at 0.092 µM.
Same read-out and setting: the same measure for `CN[C@@H](C)C(=O)N[C@H]1CN(C(=O)c2cccc(C(C)=O)c2)c2ccccc2N(Cc2c(OC)ccc3cc(Br)ccc23)C1=O` [Example 13l]: 0.067 µM; for `CN[C@@H](C)C(=O)N[C@H]1CN(C(=O)c2ccc(C(=O)OC)cc2)c2ccccc2N(Cc2c(OC)ccc3cc(Br)ccc23)C1=O` [Example 28, 4-[(S)-5-(6-Bromo-2-methoxy-naphthalen-1-ylmethyl)-3-((S)-2-methylamino-propionylamino)-4-oxo-2,3,4,5-tetrahydro-benzo[b][1,4]diazepine-1-carbonyl]-benzoic acid methyl ester hydrochloride]: 0.039 µM; for `CN[C@@H](C)C(=O)N[C@H]1CN(C(=O)C23CC4CC(CC(C4)C2)C3)c2ccccc2N(Cc2c(OC)ccc3cc(Br)ccc23)C1=O` [Example 34, (S)—N—[(S)-5-(Adamantane-1-carbonyl)-1-(6-bromo-2-methoxy-naphthalen-1-ylmethyl)-2-oxo-2,3,4,5-tetrahydro-1H-benzo[b][1,4]diazepin-3-yl]-2-methylamino-propionamide hydrochloride]: 0.033 µM.
As for `CN[C@@H](C)C(=O)N[C@H]1CN(C(=O)CCCC(C)=O)c2ccccc2N(Cc2c(OC)ccc3cc(Br)ccc23)C1=O` [Example 27, (S)—N—((S)-1-((6-bromo-2-methoxynaphthalen-1-yl)methyl)-2-oxo-5-(5-oxohexanoyl)-2,3,4,5-tetrahydro-1H-benzo[b][1,4]diazepin-3-yl)-2-(methylamino)propanamide hydrochloride], the IC50 stood at 0.033 µM.
As to `CN[C@@H](C)C(=O)N[C@H]1CN(C(=O)COCCOCCOC)c2ccccc2N(Cc2c(C)ccc3ccccc23)C1=O` [Example 13, (S)—N—[(S)-5-{2-[2-(2-Methoxy-ethoxy)-ethoxy]-acetyl}-1-(2-methyl-naphthalen-1-ylmethyl)-2-oxo-2,3,4,5-tetrahydro-1H-benzo[b][1,4]diazepin-3-yl]-2-methylamino-propionamide hydrochloride], the IC50 was determined as 0.234 µM.

For a further test, the target named is BIR3 domain of XIAP (Homo sapiens (Human), UniProt P98170). Nature of the test: TR-FRET assay for BIR3 (inhibition of binding of XIAP BIR3 domain to SMAC-derived Peptide A). The settings on record: 6x His-tagged BIR3 domain (aa 241-356 of XIAP) 10 nM, Peptide A 20 nM, TR-FRET.
Chain of BIR3 domain of XIAP (P98170 241-356 with tags or gaps limits assumed): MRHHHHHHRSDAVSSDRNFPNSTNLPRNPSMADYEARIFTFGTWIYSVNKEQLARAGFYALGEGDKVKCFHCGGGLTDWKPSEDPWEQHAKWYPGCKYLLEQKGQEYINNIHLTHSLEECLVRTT
On to `CN[C@@H](C)C(=O)N[C@H]1CN(C(=O)CC2CCOCC2)c2ccccc2N(Cc2c(OC)ccc3c(Br)cccc23)C1=O` [Example 87, (S)—N—((S)-1-((5-bromo-2-methoxynaphthalen-1-yl)methyl)-2-oxo-5-(2-(tetrahydro-2H-pyran-4-yl)acetyl)-2,3,4,5-tetrahydro-1H-benzo[b][1,4]diazepin-3-yl)-2-(methylamino)propanamide hydrochloride], for which the IC50 was found to be 54.4 µM.
